Assay results reported in patent US10550124B2, “Atropisomerism for increased kinase inhibitor selectivity” (SAN DIEGO STATE UNIVERSITY RESEARCH FOUNDATION, priority 2015, dated 2020).
pIC50: −log10 of the molar value. “And” between values parts separate entries of the source, which are not always exact repeats. Equal entries are not always repeated.

Experiments:
Assay type in all cases: biochemical
BTK = BTK (Homo sapiens, UniProt Q06187); assay: Z′-LYTE kinase inhibition assay, BTK; conditions: average of 2 runs; for inhibition at 1 µM: 1000 nM
Text: (§1) All samples were sent out to Life Technologies to obtain kinase inhibition data. A brief description of the assays and analyses are included below.
(§2) Assay Theory (SelectScreen® Kinase Profiling Services (Life Technologies, Madison, Wis. USA). The Z′-LYTE® biochemical assay employs a fluorescence-based, coupled-enzyme format and is based on the differential sensitivity of phosphorylated and non-phosphorylated peptides to proteolytic cleavage. The peptide substrate is labeled with two fluorophores one at each end—that make up a FRET pair.
(§3) In the primary reaction, the kinase transfers the gamma-phosphate of ATP to a single tyrosine, serine or threonine residue in a synthetic FRET-peptide. In the secondary reaction, a site-specific protease recognizes and cleaves non-phosphorylated FRET-peptides.
(§4) Phosphorylation of FRET-peptides suppresses cleavage by the Development Reagent. Cleavage disrupts FRET between the donor (i.e., coumarin) and acceptor (i.e., fluorescein) fluorophores on the FRET-peptide, whereas uncleaved, phosphorylated FRET-peptides maintain FRET. A ratiometric method, which calculates the ratio (the Emission Ratio) of donor emission to acceptor emission after excitation of the donor fluorophore at 400 nm, is used to quantitate reaction progress, as shown in the equation below: […]
(§5) A significant benefit of this ratiometric method for quantitating reaction progress is the elimination of well-to-well variations in FRET-peptide concentration and signal intensities. As a result, the assay yields very high Z′-factor values (>0.7) at a low percent phosphorylation. Both cleaved and uncleaved FRET-peptides contribute to the fluorescence signals and therefore to the Emission Ratio. The extent of phosphorylation of the FRET-peptide can be calculated from the Emission Ratio. The Emission Ratio will remain low if the FRET-peptide is phosphorylated (i.e., no kinase inhibition) and will he high if the FRET-peptide is non-phosphorylated (i.e., kinase inhibition).

Yes = Yes (Homo sapiens, UniProt P07947); assay: Z′-LYTE kinase inhibition assay, Yes; conditions: for IC50 of Kinase/IC50 of Yes: Yes relative to Yes; for inhibition at 1 µM: 1000 nM; for pIC50: error is standard deviation
Yes, sequence (P07947 whole entry): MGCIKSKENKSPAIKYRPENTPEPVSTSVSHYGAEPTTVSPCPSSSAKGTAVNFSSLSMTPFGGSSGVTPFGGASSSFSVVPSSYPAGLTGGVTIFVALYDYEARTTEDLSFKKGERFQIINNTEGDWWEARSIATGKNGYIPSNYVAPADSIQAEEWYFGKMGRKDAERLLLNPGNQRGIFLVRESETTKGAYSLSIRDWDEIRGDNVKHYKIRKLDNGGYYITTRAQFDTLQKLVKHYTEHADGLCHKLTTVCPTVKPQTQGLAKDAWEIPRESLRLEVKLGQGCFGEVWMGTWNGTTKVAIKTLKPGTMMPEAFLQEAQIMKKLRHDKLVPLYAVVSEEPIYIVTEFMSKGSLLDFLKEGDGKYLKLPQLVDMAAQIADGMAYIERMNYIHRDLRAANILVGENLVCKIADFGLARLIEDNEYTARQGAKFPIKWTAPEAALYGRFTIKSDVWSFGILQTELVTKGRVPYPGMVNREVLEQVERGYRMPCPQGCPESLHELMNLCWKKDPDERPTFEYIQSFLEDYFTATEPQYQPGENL
Text: as §1, §2, §3, §4, §5

Abl = Abl (Homo sapiens, UniProt P00519); assay: Z′-LYTE kinase inhibition assay, Abl; conditions: for IC50 of Kinase/IC50 of Yes: Abl relative to Yes; for pIC50: error is standard deviation
Text: as §1, §2, §3, §4, §5

Ret = Ret (Homo sapiens, UniProt P07949); assay: Z′-LYTE kinase inhibition assay, Ret; conditions: for IC50 of Kinase/IC50 of Yes: Ret relative to Yes; for pIC50: error is standard deviation
Text: as §1, §2, §3, §4, §5

Lck = Lck (Homo sapiens, UniProt P06239); assay: Z′-LYTE kinase inhibition assay, Lck; conditions: average of 2 runs; for inhibition at 1 µM: 1000 nM
Text: as §1, §2, §3, §4, §5

Fgr = Fgr (Homo sapiens, UniProt P09769); assay: Z′-LYTE kinase inhibition assay, Fgr; conditions: average of 2 runs; for inhibition at 1 µM: 1000 nM
Fgr, sequence (P09769 whole entry): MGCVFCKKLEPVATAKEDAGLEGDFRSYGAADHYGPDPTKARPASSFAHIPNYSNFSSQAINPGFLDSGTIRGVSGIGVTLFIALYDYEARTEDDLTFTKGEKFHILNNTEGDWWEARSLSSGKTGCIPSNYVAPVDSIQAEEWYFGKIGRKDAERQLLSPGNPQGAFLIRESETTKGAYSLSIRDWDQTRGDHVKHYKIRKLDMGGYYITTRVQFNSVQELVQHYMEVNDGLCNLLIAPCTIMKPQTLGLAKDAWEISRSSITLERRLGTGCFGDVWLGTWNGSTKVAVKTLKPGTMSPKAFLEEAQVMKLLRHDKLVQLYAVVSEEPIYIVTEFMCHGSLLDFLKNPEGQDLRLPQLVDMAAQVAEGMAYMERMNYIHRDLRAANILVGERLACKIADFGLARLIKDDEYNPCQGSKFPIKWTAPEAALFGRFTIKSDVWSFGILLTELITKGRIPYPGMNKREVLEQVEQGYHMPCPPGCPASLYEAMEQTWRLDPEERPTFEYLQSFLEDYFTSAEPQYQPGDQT
Text: as §1, §2, §3, §4, §5

EGFR = EGFR (Homo sapiens, UniProt P00533); assay: Z′-LYTE kinase inhibition assay, EGFR; conditions: for IC50 of Kinase/IC50 of Yes: EGFR relative to Yes; for pIC50: error is standard deviation
EGFR, sequence (P00533 25-1210): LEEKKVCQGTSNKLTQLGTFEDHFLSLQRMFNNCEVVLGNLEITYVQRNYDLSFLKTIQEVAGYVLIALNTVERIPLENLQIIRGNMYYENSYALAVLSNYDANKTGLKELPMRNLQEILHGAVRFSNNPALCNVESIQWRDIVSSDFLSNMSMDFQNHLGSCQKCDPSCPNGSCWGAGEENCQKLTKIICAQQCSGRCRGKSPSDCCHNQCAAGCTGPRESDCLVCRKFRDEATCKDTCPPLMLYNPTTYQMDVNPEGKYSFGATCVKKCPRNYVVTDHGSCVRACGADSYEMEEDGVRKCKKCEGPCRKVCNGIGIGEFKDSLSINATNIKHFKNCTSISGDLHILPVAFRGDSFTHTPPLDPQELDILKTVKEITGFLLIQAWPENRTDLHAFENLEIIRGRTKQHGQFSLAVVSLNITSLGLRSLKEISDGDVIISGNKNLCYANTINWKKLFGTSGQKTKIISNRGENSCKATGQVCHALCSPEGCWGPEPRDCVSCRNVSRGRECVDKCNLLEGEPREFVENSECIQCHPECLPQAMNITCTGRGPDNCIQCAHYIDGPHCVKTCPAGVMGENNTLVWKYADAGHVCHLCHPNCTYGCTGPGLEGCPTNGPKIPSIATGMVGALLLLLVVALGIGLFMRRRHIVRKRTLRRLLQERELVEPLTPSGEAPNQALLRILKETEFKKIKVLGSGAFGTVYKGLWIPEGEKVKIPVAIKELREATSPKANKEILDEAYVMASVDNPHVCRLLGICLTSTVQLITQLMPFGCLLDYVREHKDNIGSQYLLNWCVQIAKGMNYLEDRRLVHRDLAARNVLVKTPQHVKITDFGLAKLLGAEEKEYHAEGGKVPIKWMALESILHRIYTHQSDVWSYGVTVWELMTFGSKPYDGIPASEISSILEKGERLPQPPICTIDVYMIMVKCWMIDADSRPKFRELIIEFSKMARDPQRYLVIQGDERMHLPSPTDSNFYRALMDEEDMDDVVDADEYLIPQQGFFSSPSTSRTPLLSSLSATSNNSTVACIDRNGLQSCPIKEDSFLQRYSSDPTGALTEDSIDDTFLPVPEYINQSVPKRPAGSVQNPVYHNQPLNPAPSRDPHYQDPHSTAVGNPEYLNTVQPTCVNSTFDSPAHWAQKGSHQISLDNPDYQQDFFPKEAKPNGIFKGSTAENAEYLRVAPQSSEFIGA
Text: as §1, §2, §3, §4, §5

CSK = CSK (Homo sapiens, UniProt P41240); assay: Z′-LYTE kinase inhibition assay, CSK; conditions: average of 2 runs; for inhibition at 1 µM: 1000 nM
CSK, sequence (P41240 whole entry): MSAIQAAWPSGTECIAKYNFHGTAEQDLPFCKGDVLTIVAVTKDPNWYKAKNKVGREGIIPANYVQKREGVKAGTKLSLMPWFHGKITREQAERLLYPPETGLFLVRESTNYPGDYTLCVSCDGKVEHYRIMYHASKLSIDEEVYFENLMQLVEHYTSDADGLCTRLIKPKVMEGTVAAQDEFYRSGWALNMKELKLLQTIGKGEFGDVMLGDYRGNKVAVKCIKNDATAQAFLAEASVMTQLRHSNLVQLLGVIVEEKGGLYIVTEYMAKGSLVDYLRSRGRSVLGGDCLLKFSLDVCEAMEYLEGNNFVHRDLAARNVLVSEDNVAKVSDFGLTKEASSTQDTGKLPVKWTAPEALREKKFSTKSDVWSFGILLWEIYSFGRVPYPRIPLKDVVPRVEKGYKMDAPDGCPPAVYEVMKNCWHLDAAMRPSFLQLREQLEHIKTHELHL
Text: as §1, §2, §3, §4, §5

Lyn = Lyn (Homo sapiens, UniProt P07948); assay: Z′-LYTE kinase inhibition assay, Lyn; conditions: average of 2 runs; for inhibition at 1 µM: 1000 nM
Lyn, sequence (P07948 whole entry): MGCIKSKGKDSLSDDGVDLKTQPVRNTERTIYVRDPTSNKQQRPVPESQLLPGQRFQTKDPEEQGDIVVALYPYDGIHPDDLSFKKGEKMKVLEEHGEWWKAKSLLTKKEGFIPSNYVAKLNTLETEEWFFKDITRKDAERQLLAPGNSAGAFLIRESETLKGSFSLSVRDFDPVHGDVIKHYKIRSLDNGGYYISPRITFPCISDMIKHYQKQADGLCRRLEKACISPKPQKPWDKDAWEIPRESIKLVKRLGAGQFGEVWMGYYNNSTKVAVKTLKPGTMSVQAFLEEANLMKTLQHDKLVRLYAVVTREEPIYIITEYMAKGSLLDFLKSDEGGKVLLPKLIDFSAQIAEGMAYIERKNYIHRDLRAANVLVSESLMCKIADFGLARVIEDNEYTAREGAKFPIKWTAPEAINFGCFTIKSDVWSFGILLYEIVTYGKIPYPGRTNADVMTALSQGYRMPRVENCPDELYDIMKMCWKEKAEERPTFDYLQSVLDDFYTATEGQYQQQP
Text: as §1, §2, §3, §4, §5

[1] = test system: panel of 18 tyrosine kinases; assay: Kinase inhibitor profiling across a panel of tyrosine kinases (selectivity); conditions: for S(40%): number of kinases inhibited greater than 40% divided by number of kinases tested (including Src)
Method: In order to probe the effect of atropisomeric conformation on kinase selectivity we subjected 1f, 2e, and 2f to kinase inhibitor profiling across a panel of tyrosine kinases at 1000 nM and 5000 nM (data for 2e shown in Scheme 4 below).
To analyze each analog's selectivity across the panel we turned to selectivity scores (Davis et al., Nat. Biotechnol. 2011, 29, 1046-51), simply the number of kinases inhibited above a certain threshold divided by the number of kinases evaluated. […] For example at 1000 nM 2e-(R) yielded an S(40%) of 0.11 while 2e-(S) gave an S(40%) of 0.16. […] Differences in selectivity between 2e-(R) and 2e-(S) at 5000 nM (4.5 times the IC50 of 2e-(S) toward Src) and for 5 at 1000 nM (6.25 times the IC50 of 5 toward Src) can be viewed graphically across tyrosine kinases (FIG. 3). Importantly, similar trends were also observed across each of the atropisomeric series tested.
as §1, §2, §3, §4, §5

Hck = Hck (Homo sapiens, UniProt P08631); assay: Z′-LYTE kinase inhibition assay, Hck; conditions: average of 2 runs; for inhibition at 1 µM: 1000 nM
Hck, sequence (P08631 whole entry): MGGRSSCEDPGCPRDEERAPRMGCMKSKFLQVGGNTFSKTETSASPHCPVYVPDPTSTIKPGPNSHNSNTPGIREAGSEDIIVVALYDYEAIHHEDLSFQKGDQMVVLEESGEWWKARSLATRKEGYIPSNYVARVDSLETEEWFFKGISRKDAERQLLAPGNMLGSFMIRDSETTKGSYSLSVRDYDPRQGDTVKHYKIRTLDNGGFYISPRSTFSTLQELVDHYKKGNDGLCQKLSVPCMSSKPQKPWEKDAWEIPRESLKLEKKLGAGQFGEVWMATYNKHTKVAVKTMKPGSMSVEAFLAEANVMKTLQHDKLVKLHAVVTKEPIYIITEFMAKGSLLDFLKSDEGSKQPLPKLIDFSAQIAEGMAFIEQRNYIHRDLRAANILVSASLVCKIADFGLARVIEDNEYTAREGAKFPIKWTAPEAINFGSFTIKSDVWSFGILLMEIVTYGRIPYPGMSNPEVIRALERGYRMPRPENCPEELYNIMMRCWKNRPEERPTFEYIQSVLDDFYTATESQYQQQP
Text: as §1, §2, §3, §4, §5

Kit = Kit (Homo sapiens, UniProt P10721); assay: Z′-LYTE kinase inhibition assay, Kit; conditions: average of 2 runs
Text: as §1, §2, §3, §4, §5

pdgfr-a = pdgfr-a (Homo sapiens, UniProt P16234); assay: Z′-LYTE kinase inhibition assay, pdgfr-a; conditions: average of 2 runs; for inhibition at 1 µM: 1000 nM
Text: as §1, §2, §3, §4, §5

Src kinase = Src kinase (Homo sapiens, UniProt P12931); assay: Z′-LYTE kinase inhibition assay, Src; conditions: for IC50 of Kinase/IC50 of Yes: Src relative to Yes; for pIC50: Src, error is standard deviation
Text: Based on the observed stereochemical stabilities, we chose 1f, 2e, and 2f for further study and obtained inhibition data against Src kinase from Life Technologies' Z′-LYTE™ kinase assay (Scheme 3).
as §1, §2, §3, §4, §5

Alk = Alk (Homo sapiens, UniProt Q9UM73); assay: Z′-LYTE kinase inhibition assay, Alk; conditions: average of 2 runs; for inhibition at 1 µM: 1000 nM
Text: as §1, §2, §3, §4, §5

Blk = Blk (Homo sapiens, UniProt P51451); assay: Z′-LYTE kinase inhibition assay, Blk; conditions: average of 2 runs
Text: as §1, §2, §3, §4, §5

Her-2 = Her-2 (Homo sapiens, UniProt P04626); assay: Z′-LYTE kinase inhibition assay, Her-2; conditions: average of 2 runs
Text: as §1, §2, §3, §4, §5

pdgfr-b = pdgfr-b (Homo sapiens, UniProt P09619); assay: Z′-LYTE kinase inhibition assay, pdgfr-b; conditions: average of 2 runs
pdgfr-b, sequence (P09619 33-1106): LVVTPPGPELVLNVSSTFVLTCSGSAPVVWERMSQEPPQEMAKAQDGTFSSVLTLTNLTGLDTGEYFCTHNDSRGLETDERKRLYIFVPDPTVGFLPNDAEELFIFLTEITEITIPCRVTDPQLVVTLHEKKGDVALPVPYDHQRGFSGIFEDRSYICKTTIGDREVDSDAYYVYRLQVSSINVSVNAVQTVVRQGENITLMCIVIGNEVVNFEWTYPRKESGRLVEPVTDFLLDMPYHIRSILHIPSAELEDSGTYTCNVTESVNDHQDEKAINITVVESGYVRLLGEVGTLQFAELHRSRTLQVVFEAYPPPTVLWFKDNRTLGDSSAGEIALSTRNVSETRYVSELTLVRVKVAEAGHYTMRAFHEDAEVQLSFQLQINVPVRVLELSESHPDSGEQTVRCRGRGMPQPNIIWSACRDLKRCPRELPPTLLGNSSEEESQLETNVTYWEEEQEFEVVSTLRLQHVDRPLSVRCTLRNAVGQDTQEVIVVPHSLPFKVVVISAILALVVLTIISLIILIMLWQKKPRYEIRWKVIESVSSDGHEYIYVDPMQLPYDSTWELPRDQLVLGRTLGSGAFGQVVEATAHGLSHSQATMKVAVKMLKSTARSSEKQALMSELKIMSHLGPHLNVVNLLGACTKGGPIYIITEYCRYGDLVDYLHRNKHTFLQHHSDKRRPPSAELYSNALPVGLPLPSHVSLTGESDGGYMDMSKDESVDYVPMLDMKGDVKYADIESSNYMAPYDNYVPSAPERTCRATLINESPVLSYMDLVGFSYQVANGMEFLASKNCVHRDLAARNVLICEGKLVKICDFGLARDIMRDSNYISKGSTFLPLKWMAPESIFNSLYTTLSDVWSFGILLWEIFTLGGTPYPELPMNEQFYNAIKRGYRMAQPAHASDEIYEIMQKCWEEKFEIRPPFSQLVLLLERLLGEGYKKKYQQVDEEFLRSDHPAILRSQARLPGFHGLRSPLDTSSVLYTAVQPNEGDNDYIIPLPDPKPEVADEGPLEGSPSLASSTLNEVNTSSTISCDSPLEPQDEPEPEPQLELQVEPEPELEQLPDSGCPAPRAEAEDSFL
Text: as §1, §2, §3, §4, §5

Fyn = Fyn (Homo sapiens, UniProt P06241); assay: Z′-LYTE kinase inhibition assay, Fyn; conditions: average of 2 runs; for inhibition at 1 µM: 1000 nM
Text: as §1, §2, §3, §4, §5

## COc1ccc(Cl)c(-c2c(Cl)n(C(C)(C)C)c3ncnc(N)c23)c1 (single isomer, unassigned) [2e-(R), 7-(tert-butyl)-6-chloro-5-(2-chloro-5-methoxyphenyl)-7H-pyrrolo[2,3d]pyrimidin-4-amine]
BTK
  inhibition at 1 µM: 10%
BTK; 5000 nM, 5 µM
  % inhibition: 29%
Yes
  IC50 of Kinase/IC50 of Yes: 1
Yes; Yes, average of 2 runs
  inhibition at 1 µM: 53%
Yes; Yes, 5000 nM, average of 2 runs
  inhibition at 5 µM: 79%
Yes; Yes
  pIC50: 6.05
Abl
  IC50 of Kinase/IC50 of Yes: 10.0
Abl; Abl, 1000 nM, average of 2 runs, 1 µM
  % inhibition: 11%
Abl; Abl, 5000 nM, average of 2 runs
  % inhibition: 26%
Abl; Abl, 5000 nM, average of 2 runs, 5 µM
  % inhibition: 26%
Abl; Abl
  pIC50: < 5.00
Ret
  IC50 of Kinase/IC50 of Yes: 2.07
Ret; Ret, 1000 nM, average of 2 runs, 1 µM
  % inhibition: 35%
Ret; Ret, 5000 nM, average of 2 runs
  % inhibition: 73%
Ret; Ret, 5000 nM, average of 2 runs, 5 µM
  % inhibition: 73%
Ret; Ret
  pIC50: 5.73
Lck
  inhibition at 1 µM: 23%
Lck; 5000 nM
  inhibition at 5 µM: 51%
Fgr
  inhibition at 1 µM: 45%
Fgr; 5000 nM
  inhibition at 5 µM: 77%
EGFR
  IC50 of Kinase/IC50 of Yes: >10.0
EGFR; EGFR, 1000 nM, average of 2 runs, 1 µM
  % inhibition: −4%
EGFR; EGFR, 5000 nM, average of 2 runs, 5 µM
  % inhibition: 0%
EGFR; EGFR
  pIC50: < 5.00
CSK
  inhibition at 1 µM: 21%
CSK; 5000 nM
  inhibition at 5 µM: 35%
Lyn
  inhibition at 1 µM: 19%
Lyn; 5000 nM
  inhibition at 5 µM: 57%
[1]; 1000 nM
  S(40%): 0.11
[1]; 5000 nM
  S(40%): 0.44
[1]; Ret over Abl and Src
  augmentation of 5's inherent selectivity: 4 fold
Hck
  inhibition at 1 µM: 24%
Hck; 5000 nM
  inhibition at 5 µM: 40%
Kit; 1000 nM, 1 µM
  % inhibition: 5%
Kit; 5000 nM
  inhibition at 5 µM: 26%
pdgfr-a
  inhibition at 1 µM: 3%
pdgfr-a; 5000 nM
  inhibition at 5 µM: 8%
Src kinase
  IC50 of Kinase/IC50 of Yes: 6.22
  pIC50: 5.25
Alk
  inhibition at 1 µM: 6%
Alk; 5000 nM, 5 µM
  % inhibition: 18%
Blk; 1000 nM, 1 µM
  % inhibition: 3%
Blk; 5000 nM
  inhibition at 5 µM: 32%
Her-2; 1000 nM, 1 µM
  % inhibition: −2%
Her-2; 5000 nM
  inhibition at 5 µM: 0%
pdgfr-b; 1000 nM, 1 µM
  % inhibition: 4%
pdgfr-b; 5000 nM
  inhibition at 5 µM: 13%
Fyn
  inhibition at 1 µM: 19%
Fyn; 5000 nM
  inhibition at 5 µM: 44%

## COc1cccc(-c2cn(C(C)(C)C)c3ncnc(N)c23)c1 [Compound 5, reference compound]
BTK; 200 nM
  inhibition at 0.2 µM: 62%
BTK
  inhibition at 1 µM: 90%
Yes
  IC50 of Kinase/IC50 of Yes: 1
Yes; Yes, 200 nM, average of 2 runs
  inhibition at 0.2 µM: 63%
Yes; Yes, average of 2 runs
  inhibition at 1 µM: 90%
Yes; Yes
  pIC50: 7.04
Abl
  IC50 of Kinase/IC50 of Yes: 2.65
Abl; Abl, 200 nM, average of 2 runs
  inhibition at 0.2 µM: 37%
Abl; Abl, 1000 nM, average of 2 runs
  inhibition at 1 µM: 78%
Abl; Abl
  pIC50: 6.61
Ret
  IC50 of Kinase/IC50 of Yes: 1.4
Ret; Ret, 200 nM, average of 2 runs
  inhibition at 0.2 µM: 59%
Ret; Ret, 1000 nM, average of 2 runs
  inhibition at 1 µM: 89%
Ret; Ret
  pIC50: 6.89
Lck; 200 nM
  inhibition at 0.2 µM: 32%
Lck
  inhibition at 1 µM: 79%
Fgr; 200 nM
  inhibition at 0.2 µM: 69%
Fgr
  inhibition at 1 µM: 92%
EGFR
  IC50 of Kinase/IC50 of Yes: 7 and 6.96
EGFR; EGFR, 200 nM, average of 2 runs
  inhibition at 0.2 µM: 28%
EGFR; EGFR, 1000 nM, average of 2 runs
  inhibition at 1 µM: 62%
EGFR; EGFR
  pIC50: 6.19
CSK; 200 nM
  inhibition at 0.2 µM: 36%
CSK
  inhibition at 1 µM: 65%
Lyn; 200 nM
  inhibition at 0.2 µM: 58%
Lyn
  inhibition at 1 µM: 85%
[1]; 200 nM
  S(40%): 0.44
[1]; 1000 nM
  S(40%): 0.72
[1]; Ret, Src, Abl vs Yes
  relative selectivities favoring Yes (IC50 kinase/IC50 YES) over Ret, Src, and Abl: 1.4-2.65 fold
Hck; 200 nM
  inhibition at 0.2 µM: 59%
Hck
  inhibition at 1 µM: 80%
Kit; 200 nM
  inhibition at 0.2 µM: 8%
Kit; 1000 nM
  inhibition at 1 µM: 27%
pdgfr-a; 200 nM
  inhibition at 0.2 µM: 11%
pdgfr-a
  inhibition at 1 µM: 34%
Src kinase
  IC50 of Kinase/IC50 of Yes: 1.64
  pIC50: 6.82
Alk; 200 nM
  inhibition at 0.2 µM: 11%
Alk
  inhibition at 1 µM: 23%
Blk; 200 nM
  inhibition at 0.2 µM: 38%
Blk; 1000 nM
  inhibition at 1 µM: 74%
Her-2; 200 nM
  inhibition at 0.2 µM: 4%
Her-2; 1000 nM
  inhibition at 1 µM: 16%
pdgfr-b; 200 nM
  inhibition at 0.2 µM: 6%
pdgfr-b; 1000 nM
  inhibition at 1 µM: 19%
Fyn; 200 nM
  inhibition at 0.2 µM: 56%
Fyn
  inhibition at 1 µM: 84%
